Data published in US10350334B2, “Catheter locking solution having antimicrobial and anticoagulation properties” (Becton, Dickinson and Company, priority 2009, dated 2019).
“And” between values parts separate entries of the source, which are not always exact repeats. Identical values can stand only once.

Columns and labels:
[1] = tested on: Candida albicans biofilm; test: Catheter biofilm eradication (catheter segment test) on silicone tubing; type: cell-based; conditions: 38 mg/mL, 1 hour, silicone catheter segments
Description: (§1) To understand the antimicrobial effects of the local anesthetics used in the lock solution of the present invention in a clinical setting, a biofilm was grown on silicone catheter-like tubing and treated with various concentrations of local anesthetics. First, a sterile silicone catheter-like tube containing 10 mL TSB media was inoculated with a BD BBL™ Qualiswab™, and placed in an incubator at 37° C. overnight. The next day, a sterile flask containing 25 mL TSB (for bacterial species) or 25 mL SDB (for fungal species) was inoculated with the cultured cells. The morning of the experiment, a new flask containing 25 mL of media was inoculated with the new overnight suspension. These steps were taken to ensure that cells were in the log phase, which for S. epidermidis was ˜3-4 hours, and for C. albicans was around ˜18 hrs. […] Microbial concentrations were adjusted to 1×10^5 CFU/mL by dilution with appropriate media. Silicone catheter-like tubing was terminally sterilized by autoclaving the tube for 45 minutes at 121° C. The sterilized catheter-like tubing was inoculated with 1×10^5 CFU/mL for 2 hours under continuous flow. Continuous flow was created by using a peristaltic pump, in which bacterial suspension was flowed through the catheter segments into a waste reservoir. After the 2 hour time period, the same set up was used to pump TSB media through the tubing for an additional 24 hours to allow biofilm to form on the walls of the catheter lumen. After 24 hours, sterilized saline was pumped through the lumen for 30 minutes to rinse the catheters. Catheters were then cut into 1 inch segments using sterile techniques. Catheter segments were dropped into sterile tubes containing 4 mL of antimicrobials, and incubated in a 37° C. incubator shaker for 1 hour. Segments were removed from treatment tubes and placed into new tubes filled with 6 mL of sterile saline. Each segment was swabbed with a sterile swab and both the tube and the swab were sonicated (Ultrasonic cleaner VWR Model 250T) for 3 minutes. Tubes and swabs were then vortexed (Fisher Scientific Vortex Mixer #02-215-365) for 30 seconds each. One hundred microliters of suspension was plated onto TSB agar plates (SDB for fungal species). The remaining 5.9 mL of suspension was passed through 0.4 μm filters and filters were placed on TSB plates. This step was taken to ensure that all possible bacteria were being recovered. All TSB plates were then incubated at 37° C. in a static incubator for 24-48 hours, at which time colony forming units were counted.

[2] = tested on: Staphylococcus epidermidis biofilm; test: as above; type: cell-based; conditions: 1 hour, silicone catheter segments
Description: as §1

[3] = tested on: P. aeruginosa; test: Minimum Biofilm Inhibitory Concentration (MBIC) test; type: cell-based, Pseudomonas aeruginosa; conditions: for MBIC: adhered cells, 24 hours incubation; for MBIC Assuming 2 mL lock volume: amount in 2 mL lock volume
Description: (§2) To further evaluate the efficacy of local anesthetics in antimicrobial lock solutions of the present invention, the minimum concentration at which these drugs can inhibit biofilm growth was tested. The local anesthetics identified in Table 4 were tested against three different species of bacteria identified in Table 3 to assess the antimicrobial efficacy against adhered microbes. It is known that adhered microbes, or biofilms, can be more resistant to antimicrobials than planktonic cells.
(§3) Experiments were conducted against adhered microbes as follows: first, a test tube containing 10 mL of sterile TSB was inocubated with BD BBL™ Qualiswab™, with the strain of interest. The tube was placed in an incubator at 37° C. overnight. The next day, a flask containing 25 mL of sterile TSB (or Sabouraud Dextrose Broth (SDB) for fungal species) was inoculated with 1 mL of bacterial suspension. The flask was placed in an incubator at 37° C. and shaken at 150 RPM. The next day a new flask containing 25 mL of TSB (or SDB) media was inoculated with 1 mL from the previous culture. The bacterial or fungal species were allowed to grow to log phase.
(§4) After the microbes entered the log phase, their concentration was checked to ensure that they had reached a minimum of 1×10^8 CFU/mL per a 0.5 MacFarland standard. Microbes were diluted to a concentration of 1×10^5 CFU/mL using a nephelometer and 200 μL of the microbial suspensions were plated on each of the wells of a 96 well plate. The plate was incubated in a standard incubator at 37° C. for 2 hours to allow for microbial cell adhesion. Next, dilutions of the desired concentrations of antimicrobials were prepared. In a separate, blank plate, 1:2 serial dilutions were prepared with the highest concentration of the antimicrobial to the left of the plate, decreasing in concentration towards the right of the plate. For example, 170 μL of the highest concentration of an antimicrobial was dispensed in column 1 (left of plate). Each of the rest of the columns received 170 μL of saline. Column 2 received 170 μL of antimicrobial, making for a 1:2 dilution (or 50% of original concentration). Contents of Column 2 were then transferred to 3, then from 3 to 4, and so forth. Each well was supplemented with 20% media (TSB for S. epidermidis and P. aeruginosa and SDB for C. albicans), thereby ensuring the viability of the cells over the test time period (24 hours). Positive control wells had 20% media in saline. The bacterial plate was removed from the incubator, and bacterial suspension discarded (adhered cells remain on plate). The antimicrobial formulations identified in Table 4 were then added to the bacterial plate and incubated in a standard incubator at 37° C. for 24 hours. After this time period, solutions in the plate were discarded and plates were rinsed with 200 μL of saline. The cells were then fixed with 200 μL of 95% ethanol for 30 minutes, and allowed to air dry for 10 minutes. Next, the cells were stained for 20 minutes with 250 μL of a filtered solution of 2% crystal violet dye. The plates were then rinsed three times with water, and the 2% crystal violet dye was solubilized with 300 μL of 95% ethanol. The plates were allowed to stand for 10 minutes to complete solubilization and then the plates were read on a spectrophotometer at 570 nm absorbance, wherein high absorbance readings of >0.600 indicated microbial growth. Columns in the plate that had no growth were recorded as the […] (MBIC). FIG. 2 illustrates the MBIC corresponding to the specific local anesthetics.

[4] = tested on: sheep plasma; test: Sheep's Plasma Clotting Assay (USP coagulation test); type: biochemical
Description: In order to understand what the working concentration range could be for the anesthetics tested, a Sheep's Plasma Clotting Assay was performed. This test is based on the United States Pharmacopeia (USP) standard test for coagulation and is often used to understand heparin potency. […] Sheep plasma was thawed in a water bath set to 37° C. To facilitate thawing, the plasma in the bottle was inverted every 15 minutes. The plasma was thawed after about 45-60 minutes. The thawed sheep plasma was filtered through glass wool or filtered into a clean glass beaker or flask, to remove particulate matter and to activate it. About 70-80 mL of filtered sheep plasma was collected. Next, a set of test tubes were prepared (VWR Disposable 13×100-mm) in a 6×12 rack. Ten test tubes were needed for each test solution including ten test tubes for the heparin standard. […] For each test solution, every (10) test tube received different volumes of 0.9% NaCl. […] Next, the local anesthetics were added, namely, tetracaine at 30 mg/mL, dibucaine at 30 mg/mL, and bupivacaine at 38 mg/mL. Each of the ten test tubes received different volumes of test solutions, starting with 280 μL and increasing in volume by 20 μL until reaching a volume of 460 μL at the tenth tube. The total volume of saline and test solutions in each of the tubes was 800 μL. A standard solution, namely, USP heparin sodium standard, was also prepared in the same way, with the starting concentration of heparin being 5.6 U/mL. Next, 1 mL of sheep plasma for heparin assay (Bio-Supplies, Inc, P-SPR-1500) was pipetted into each tube, and the rack was gently shaken to ensure mixing. Two hundred μL of a 1% CaCl2 solution was placed into each tube. The total volume for each tube is 2 mL. Each tube was capped with a VWR Plug-type cap, and contents of each tube were inverted six times to ensure that the entire inner wall of each tube was wet. Tubes were incubated for 1 hour at room temperature. After the 1 hour time period, the extent of clotting in each tube was determined by gently shaking each individual test tube (tapping the end gently is acceptable) and then tilting the tube to observe a clot both vertically and horizontally. The degree to which each tube developed a clot was recorded using the following criteria (per the USP Standard) for the visual inspection of the tubes: • 0% Clotting=No apparent clot formed. • 25% Clotting=Small observable clot with mostly liquid. Clot is very mobile. • 50% Clotting=Plasma is completely clotted but mobile. • 75% Clotting=Clot is not mobile but liquid is still present. • 100% Clotting=Clot is not mobile and no liquid is present.
Because of the testing protocol, starting concentrations of anesthetics were diluted from the original formulation. Calculations can be made to compare the efficacy of these anesthetics to the standard anticoagulant heparin by calculating the point at which both standard and test samples yield 50% clotting. Using this calculation, the anesthetic concentration can be referenced back to a measure of U/mL of heparin equivalence.

[5] = tested on: S. epidermidis; test: Minimum Biofilm Inhibitory Concentration (MBIC) test; type: cell-based, Staphylococcus epidermidis; conditions: for MBIC: adhered cells, 24 hours incubation; for MBIC Assuming 2 mL lock volume: amount in 2 mL lock volume
Description: as §2, §3, §4

[6] = tested on: C. albicans; test: as above; type: cell-based, Candida albicans; conditions: for MBIC: adhered cells, 24 hours incubation; for MBIC Assuming 2 mL lock volume: amount in 2 mL lock volume
Description: as §2, §3, §4

[7] = Internal testing of anticoagulant equivalence to heparin; conditions: per internal testing
[8] = tested on: Staphylococcus epidermidis; test: Planktonic cell tests; type: cell-based; conditions: heparin solution
Description: In the planktonic cell tests, bupivacine was tested against non-adhering coagulase negative S. epidermidis, which is the bacterial species most prominent in the pathogenesis of CR-BSI. The planktonic cell experiments were performed by the following procedures. First, bacterial suspensions were prepared. Particularly, using BD BBL™ Qualiswab™, S. epidermidis was plated on a Tryptic Soy Broth (TSB) Petri Dish and grown overnight at 37° C. Using a sterile loop, a colony of S. epidermidis was picked up from the TSB Petri Dish and placed into a sterile flask containing 25 mL of sterile TSB media. The flask was then placed in a 37° C. shaking incubator and was shaken at 150 RPM overnight. The next day, 15 mL of the prepared bacterial suspension was placed into an autoclaved centrifuge tube and centrifuged at 10,000 RPM for 10 minutes using a Sorval Centrifuge. The bacteria from the bacterial suspension were rinsed in 0.9% saline by discarding the liquid media (after centrifugation step) and by resuspending the microbial pellet in 20 mL of sterile 0.9% saline. The bacteria were centrifuged and rinsed twice more, for a total of three saline rinses. […]
Bulk concentrations of the bupivacaine and/or vancomyacin (as noted in FIG. 1) were prepared in separate beakers and were filter sterilized. […] Samples were also assessed at time 0, in which there was no exposure to antimicrobials. […]

Compound: CCCCOc1cc(C(=O)NCCN(CC)CC)c2ccccc2n1.Cl [Dibucaine, Dibucaine HCl]
- eradication of established biofilm [1]: completely eradicated
- Log reduction of established biofilm ([2]; 38 mg/mL): ~0.5 Log
- MBIC ([3]; HCl): 4.794 mg/mL and 4.75 mg/mL
- MBIC Assuming 2 mL lock volume [3]: 9.5 mg
- Equivalence to Heparin ([4]; calculated from volumes giving 50% clotting versus heparin standard, per replicate): 6.23 U/mL
- 50% clotting range ([4]; final concentration in tube, 1 hour at room temperature, per replicate): 5.1 to 5.4 mg/mL
- MBIC [5]: 0.59 mg/mL
- MBIC Assuming 2 mL lock volume [5]: 1.18 mg
- MBIC [6]: 0.59 mg/mL
- MBIC Assuming 2 mL lock volume [6]: 1.18 mg

Compound: Cc1cccc(C)c1NC(=O)C1CCCCN1C.Cl (stereo not drawn) [Mepivacaine, Mepivacaine HCl]
- Log reduction of established biofilm ([2]; 28 mg/mL): 1.6 Log
- MBIC [3]: 28.2 mg/mL
- MBIC Assuming 2 mL lock volume [3]: 56.4 mg
- MBIC [5]: 28.2 mg/mL
- MBIC Assuming 2 mL lock volume [5]: 56.4 mg
- MBIC [6]: No inhibition
- MBIC Assuming 2 mL lock volume [6]: No inhibition

Compound: CCCNC(C)C(=O)Nc1ccccc1C.Cl (stereo not drawn) [Prilocaine, Prilocaine HCl]
- antimicrobial effect on established biofilm [2]: minimal antimicrobial effect

Compound: O=C([O-])CC(O)(CC(=O)[O-])C(=O)[O-].[Na+].[Na+].[Na+] [sodium citrate]
- anticoagulant equivalence to heparin [7]: about 20 units/mL of heparin

Compound: heparin
- antimicrobial effect against planktonic Staphylococcus epidermidis [8]: virtually no antimicrobial effect
- volume at 50% coagulation ([4]; Rep 1): 370 µL
